From ChEMBL document CHEMBL6083276, “Pan-Transcriptional Enhanced Associated Domain Palmitoylation Pocket Covalent Inhibitor” (J Med Chem, 2024)
One block for each compound: values may come before it. Active and inactive are the calls of the source. The rule behind the calls is not given here.

Assays:
[1] = Inhibition of palmitoylation site of TEAD (unknown origin) in human Hippo Pathway/TEAD Luciferase reporter MCF7 cells assessed as reduction in transcriptional activation by measuring luciferase activity incubated for 24 hrs by Promega One-Glo luciferase reagent based assay; format: cell-based, Hippo Pathway/TEAD Luciferase reporter MCF7 cell; settings: MCF7, 24 h
NCI-H226 [2] = assay: Cytotoxicity against human NCI-H226 cells assessed as reduction in cell viability incubated for 144 hrs by CellTiter-Glo luciferase assay; format: functional, cell-based; settings: NCI-H226, 144 h
[3] = Tmax in mouse at 10 mg/kg, po measured after 24 hrs by LC-MS/MS analysis; format: ADME, organism-based; settings: in vivo
NCI-H226 [4] = assay: Inhibition of CTGF gene expression in human NCI-H226 cells at 300 nM incubated for 24 hrs by RT-qPCR analysis; format: functional, cell-based
[5] = Metabolic stability in human liver microsomes assessed as parent compound remaining measured after 30 mins by LC-MS/MS analysis; format: ADME, Microsome; settings: read-out: Stability
[6] = Half-life in mouse at 10 mg/kg, po measured after 24 hrs by LC-MS/MS analysis; format: ADME, organism-based; settings: in vivo
NCI-H226 [7] = assay: Cytotoxicity against human NCI-H226 cells assessed as reduction in cell viability at 0.1 to 1 uM incubated for 12 to 48 hrs; format: functional, cell-based; settings: dose 0.1-1 µM, time 12-48 hrs
HEK293 = assay: Cytotoxicity against HEK293 cells assessed as reduction in cell viability at 0.1 to 1 uM incubated for 12 to 48 hrs; format: toxicity, cell-based; settings: human, hek293, 1 µM; dose lower 0.1 µM, time lower 12 hrs, dose upper 1 µM, time upper 48 hrs
[8] = Metabolic stability in mouse liver microsomes assessed as parent compound remaining measured after 15 mins by LC-MS/MS analysis; format: ADME, Microsome; settings: read-out: Stability
[9] = biological target: Transcriptional enhancer factor TEF-5 (Homo sapiens) (UniProt Q99594); assay: Inhibition of Myc-tagged TEAD3 (unknown origin) palmitoylation transfected in HEK293 cells at 300 nM incubated for 24 hrs by palmitoylation assay; format: cell-based
Sequence of Transcriptional enhancer factor TEF-5 (Homo sapiens) (Q99594 whole entry): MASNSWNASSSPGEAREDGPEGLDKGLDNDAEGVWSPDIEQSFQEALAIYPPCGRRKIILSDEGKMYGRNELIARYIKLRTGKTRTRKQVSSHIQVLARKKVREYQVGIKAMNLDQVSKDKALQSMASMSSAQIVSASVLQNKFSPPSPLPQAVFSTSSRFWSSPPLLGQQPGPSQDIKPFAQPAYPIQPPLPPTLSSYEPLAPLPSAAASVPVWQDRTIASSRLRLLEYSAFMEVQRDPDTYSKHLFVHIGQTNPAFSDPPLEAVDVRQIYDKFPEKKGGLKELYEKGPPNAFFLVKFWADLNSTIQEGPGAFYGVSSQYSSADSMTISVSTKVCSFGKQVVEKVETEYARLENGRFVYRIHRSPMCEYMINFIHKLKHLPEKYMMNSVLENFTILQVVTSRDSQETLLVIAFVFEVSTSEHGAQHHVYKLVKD

[10] = Selectivity index, ratio of IC50 for human NCI-H28 cells to IC50 for human NCI-H226 cells
[11] = AUClast in mouse at 10 mg/kg, po measured after 24 hrs by LC-MS/MS analysis; format: ADME, organism-based; settings: in vivo
NCI-H226 [12] = assay: (§1) Inhibition of CTGF gene expression in human NCI-H226 cells at 30 nM incubated for 24 hrs by RT-qPCR analysis relative to control; format: functional
NCI-H226 [13] = assay: Antitumor activity against human NCI-H226 cells xenografted in mouse assessed as tumor growth inhibition at 30 mg/kg, po administered for 28 days; format: functional, organism-based; settings: time 28.0 day
[14] = MRT in mouse at 10 mg/kg, po measured after 24 hrs by LC-MS/MS analysis; format: ADME, organism-based; settings: in vivo
[15] = Cmax in mouse at 10 mg/kg, po measured after 24 hrs by LC-MS/MS analysis; format: ADME, organism-based; settings: in vivo
[16] = Metabolic stability in mouse liver microsomes assessed as parent compound remaining measured after 30 mins by LC-MS/MS analysis; format: ADME, Microsome; settings: read-out: Stability
[17] = Metabolic stability in human liver microsomes assessed as parent compound remaining measured after 15 mins by LC-MS/MS analysis; format: ADME, Microsome; settings: read-out: Stability
[18] = biological target: Transcriptional enhancer factor TEF-1 (Homo sapiens) (UniProt P28347); assay: Inhibition of Myc-tagged TEAD1 (unknown origin) palmitoylation transfected in HEK293 cells at 300 nM incubated for 24 hrs by palmitoylation assay; format: cell-based
Sequence of Transcriptional enhancer factor TEF-1 (Homo sapiens) (P28347 whole entry): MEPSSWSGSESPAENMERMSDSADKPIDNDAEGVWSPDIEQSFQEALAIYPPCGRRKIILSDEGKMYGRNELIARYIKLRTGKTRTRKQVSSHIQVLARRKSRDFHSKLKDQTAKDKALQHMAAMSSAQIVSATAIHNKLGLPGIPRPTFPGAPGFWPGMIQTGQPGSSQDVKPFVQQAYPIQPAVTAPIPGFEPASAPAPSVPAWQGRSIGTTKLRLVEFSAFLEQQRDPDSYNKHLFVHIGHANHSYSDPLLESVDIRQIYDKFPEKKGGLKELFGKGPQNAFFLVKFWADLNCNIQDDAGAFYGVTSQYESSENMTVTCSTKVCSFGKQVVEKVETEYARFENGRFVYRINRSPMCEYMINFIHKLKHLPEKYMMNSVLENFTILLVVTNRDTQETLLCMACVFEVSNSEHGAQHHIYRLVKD

NCI-H226 [19] = assay: Inhibition of CYR61 gene expression in human NCI-H226 cells at 300 nM incubated for 24 hrs by RT-qPCR analysis; format: functional, cell-based
[20] = Toxicity in mouse xenografted with human NCI-H226 cells assessed as body weight loss at 10 to 30 mg/kg, po administered for 28 days; format: organism-based; settings: in vivo, 672 h, dose 10-30 mg/kg, time 28 day
NCI-H226 [21] = assay: (§2) Inhibition of CYR61 gene expression in human NCI-H226 cells at 30 nM incubated for 24 hrs by RT-qPCR analysis relative to control; format: functional
NCI-H226 [22] = assay: Antitumor activity against human NCI-H226 cells xenografted in mouse assessed as reduction in tumor volume at 10 mg/kg, po administered for 28 days; format: functional, organism-based; settings: time 28.0 day
[23] = tested on: Hippo Pathway/TEAD Luciferase reporter MCF7 cell; assay: Inhibition of palmitoylation site of TEAD (unknown origin) in human Hippo Pathway/TEAD Luciferase reporter MCF7 cells assessed as reduction in transcriptional activation by measuring luciferase activity at 1000 nM incubated for 24 hrs by Promega One-Glo luciferase reagent based assay
NCI-H226 [24] = assay: Inhibition of CTGF gene expression in human NCI-H226 cells incubated for 24 hrs by RT-qPCR analysis; format: functional, cell-based; settings: dose 30-300 nM
NCI-H226 [25] = assay: Antitumor activity against human NCI-H226 cells xenografted in mouse assessed as tumor growth inhibition at 30 mg/kg, po measured after 17 days; format: functional, organism-based; settings: time 17.0 day
[26] = as §1; format: functional
NCI-H226 [27] = assay: Antitumor activity against human NCI-H226 cells xenografted in mouse assessed as reduction in tumor size at 10 to 30 mg/kg, po measured upto 28 days; format: functional, organism-based; settings: dose 10-30 mg/kg, time <= 28.0 day
[28] = biological target: Transcriptional enhancer factor TEF-3 (Homo sapiens) (UniProt Q15561); assay: Inhibition of Myc-tagged TEAD4 (unknown origin) palmitoylation transfected in HEK293 cells at 300 nM incubated for 24 hrs by palmitoylation assay; format: cell-based
Sequence of Transcriptional enhancer factor TEF-3 (Homo sapiens) (Q15561 whole entry): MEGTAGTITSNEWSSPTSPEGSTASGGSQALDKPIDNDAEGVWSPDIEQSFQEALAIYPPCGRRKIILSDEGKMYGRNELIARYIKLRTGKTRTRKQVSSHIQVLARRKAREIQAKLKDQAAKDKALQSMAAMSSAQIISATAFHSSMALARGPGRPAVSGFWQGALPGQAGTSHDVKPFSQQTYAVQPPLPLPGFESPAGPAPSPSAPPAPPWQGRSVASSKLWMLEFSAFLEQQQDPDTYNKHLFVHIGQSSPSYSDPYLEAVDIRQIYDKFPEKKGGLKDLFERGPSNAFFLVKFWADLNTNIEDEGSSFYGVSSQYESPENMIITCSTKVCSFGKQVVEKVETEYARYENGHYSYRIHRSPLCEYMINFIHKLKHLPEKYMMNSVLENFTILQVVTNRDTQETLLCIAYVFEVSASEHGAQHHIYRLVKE

[29] = biological target: Transcriptional enhancer factor TEF-4 (Homo sapiens) (UniProt Q15562); assay: Inhibition of Myc-tagged TEAD2 (unknown origin) palmitoylation transfected in HEK293 cells at 300 nM incubated for 24 hrs by palmitoylation assay; format: cell-based
Sequence of Transcriptional enhancer factor TEF-4 (Homo sapiens) (Q15562 whole entry): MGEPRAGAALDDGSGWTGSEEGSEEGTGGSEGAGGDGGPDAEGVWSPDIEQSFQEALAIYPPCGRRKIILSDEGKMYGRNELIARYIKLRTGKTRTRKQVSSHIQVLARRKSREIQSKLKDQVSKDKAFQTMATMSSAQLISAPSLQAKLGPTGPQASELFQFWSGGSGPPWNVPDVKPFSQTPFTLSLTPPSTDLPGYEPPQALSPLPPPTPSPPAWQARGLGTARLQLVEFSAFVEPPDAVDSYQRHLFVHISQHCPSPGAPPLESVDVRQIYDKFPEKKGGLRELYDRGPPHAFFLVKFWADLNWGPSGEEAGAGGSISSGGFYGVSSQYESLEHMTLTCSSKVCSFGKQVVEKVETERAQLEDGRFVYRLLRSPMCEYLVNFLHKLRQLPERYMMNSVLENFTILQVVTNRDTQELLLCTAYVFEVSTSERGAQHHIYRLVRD

NCI-H226 [30] = assay: Inhibition of CYR61 gene expression in human NCI-H226 cells incubated for 24 hrs by RT-qPCR analysis; format: functional, cell-based; settings: dose 30-300 nM
[31] = as §2; format: functional

Compound: C[C@H](NC(=O)c1ccc2c(-c3ccc(C(F)(F)F)cc3)cccc2c1)c1ccccn1
IC50 [1]: 1.9 nM | IC50 (NCI-H226 [2]): 27.1 nM

Compound: CN(C)C/C=C/C(=O)N1CCc2ccc(-c3ccc(C(F)(F)F)cc3)cc2C1
inhibition [23]: Active; Incomplete Inhibition Observed | inhibition (NCI-H226 [19]): Active; Minimal Inhibition Observed | IC50 [1]: 0.65 nM | inhibition (NCI-H226 [24]): Dose-dependent-effect

Compound: CCC(=O)N1CCc2ccc(-c3ccc(C(F)(F)F)cc3)cc2C1
IC50 [1]: 1510 nM

Compound: CC#CC(=O)N1CCc2ccc(-c3ccc(C(F)(F)F)cc3)cc2C1
IC50 [1]: 52.4 nM

Compound: C=CC(=O)N1CCc2ccc(-c3ccccc3)cc2C1
IC50 [1]: 3.15 nM | IC50 (NCI-H226 [2]): 7.04 nM

Compound: C=CC(=O)Nc1ccc(C)c(Oc2ccc(Cl)cc2)c1
remaining at 0.5 h [5]: 63.5% | remaining at 0.25 h [8]: 26.4% | remaining at 0.5 h [16]: 9.7% | remaining at 0.25 h [17]: 77.6% | IC50 [1]: 0.61 nM | IC50 (NCI-H226 [2]): 10.6 nM

Compound: C=CC(=O)N1CCc2ccc(-c3ccc(C)cc3)cc2C1
IC50 [1]: 4.26 nM | IC50 (NCI-H226 [2]): 3.03 nM

Second part, led by results:

IC50 [1]: 4.11 nM
Compound: C=CC(=O)N1CCc2ccc(-c3ccc(C(F)(F)F)cn3)cc2C1
IC50 (NCI-H226 [2]): 26.6 nM

Tmax [3]: 0.75 h | remaining at 0.5 h [5]: 97.7% | half-life [6]: 5.62 h | remaining at 0.25 h [8]: 89.2% | inhibition [9]: Active | AUC(0-t) at 24 h [11]: 5.41 µg·h/mL | MRT [14]: 7.5 h | Cmax [15]: 1.39 µg/mL | remaining at 0.5 h [16]: 85.1% | remaining at 0.25 h [17]: 98.2% | inhibition [18]: Active | IC50 [1]: 1.34 nM
Compound: C=C(F)C(=O)N1CCc2ccc(-c3ccc(C(F)(F)F)cc3)cc2C1
inhibition (NCI-H226 [4]): Active | Activity (NCI-H226 [7]): inactive | Activity (HEK293): Non-toxic | Ratio IC50 [10]: >20 | inhibition (NCI-H226 [12]): inactive | Activity (NCI-H226 [13]): Active | inhibition (NCI-H226 [19]): Active | Activity [20]: Non-toxic | inhibition (NCI-H226 [21]): inactive | IC50 (NCI-H226 [2]): 30.9 nM | Activity (NCI-H226 [22]): Active; Modest Effect Observed

IC50 [1]: 0.84 nM
Compound: C=CC(=O)N1CCc2ccc(-c3ccc(F)cc3)cc2C1
IC50 (NCI-H226 [2]): 21.6 nM

IC50 [1]: 5.36 nM
Compound: C=CC(=O)N1CCc2ccc(-c3cccs3)cc2C1
IC50 (NCI-H226 [2]): 402 nM

IC50 [1]: 0.36 nM
Compound: C=CC(=O)N1CCc2ccc(-c3ccc(C(F)(F)F)c(F)c3)cc2C1
IC50 (NCI-H226 [2]): 115 nM

IC50 [1]: 1.04 nM
Compound: C=CC(=O)N1CCc2ccc(-c3ccc(C(F)(F)F)cc3Cl)cc2C1
IC50 (NCI-H226 [2]): 119 nM

IC50 [1]: 5.48 nM
Compound: C=CC(=O)N1CCc2ccc(-c3ccc(C(F)(F)F)nc3)cc2C1
IC50 (NCI-H226 [2]): 391 nM

IC50 [1]: 0.88 nM
Compound: C=CC(=O)N1CCc2ccc(-c3cccc(C(F)(F)F)c3)cc2C1
IC50 (NCI-H226 [2]): 85.2 nM

IC50 [1]: 0.7 nM
Compound: C=CC(=O)N1CCc2ccc(-c3ccc(OC(F)(F)F)cc3)cc2C1
IC50 (NCI-H226 [2]): 22.2 nM

Tmax [3]: 1.12 h | remaining at 0.5 h [5]: 79.6% | half-life [6]: 3.06 h | remaining at 0.25 h [8]: 75.9% | inhibition [9]: Active | AUC(0-t) at 24 h [11]: 3.81 µg·h/mL | MRT [14]: 6.08 h | Cmax [15]: 0.974 µg/mL | remaining at 0.5 h [16]: 62.7% | remaining at 0.25 h [17]: 95.9% | inhibition [28]: Active | inhibition [29]: Active | inhibition [18]: Active | IC50 [1]: 0.34 nM
Compound: C=CC(=O)N1CCc2ccc(-c3ccc(C(F)(F)F)cc3)cc2C1
inhibition (NCI-H226 [4]): Active; Higher Inhibition Observed | Activity (NCI-H226 [25]): Active; Compound Showed Sustain Suppression Without Rebound | Activity (NCI-H226 [7]): inactive | Activity (HEK293): Non-toxic | Ratio IC50 [10]: >150 | inhibition at 0.03 µM [26]: > 50% | Activity (NCI-H226 [27]): Active | inhibition (NCI-H226 [30]): Dose-dependent-effect | inhibition (NCI-H226 [19]): Active; Higher Inhibition Observed | Activity [20]: Non-toxic | inhibition at 0.03 µM [31]: > 50% | IC50 (NCI-H226 [2]): 3.34 nM | inhibition (NCI-H226 [24]): Dose-dependent-effect
